According to patent US9981963B2, “3-(1H-pyrazol-4-yl)-1H-pyrrolo[2,3-c]pyridine derivatives as NIK inhibitors” (Janssen Pharmaceutica NV, priority 2013, dated 2018):

Columns and labels:
JJN-3 cells = test: Biological Assay C: antiproliferative activity on JJN-3 cells (CellTiter-Glo); type: cell-based; details: Homo sapiens, 72 hr of treatment, averaged values
Procedure: (§1) Determination of Antiproliferative Activity on LP-1, L-363 and JJN-3 Cells
(§2) All compounds tested were dissolved in DMSO and further dilutions were made in culture medium. Final DMSO concentration was 0.3% (v/v) in cell proliferation assays. Viability was assessed using CellTiter-Glo cell viability assay kit (Promega). The human LP-1, L-363 and JJN-3 cells (DSMZ) were cultured in RPMI 1640 medium supplemented with 2 mM L-glutamine, and 10% fetal calf serum (PAA). Cells were routinely kept as suspension cells at 37° C. in a humidified 5% CO2 atmosphere. Cells were passaged at a seeding density of 0.2×10^6/ml twice a week. Cells were seeded in black tissue culture treated 96-well plates (Perkin Elmer). Densities used for plating ranged from 2,000 to 6,000 cells per well in a total volume of 75 μl medium. After twenty four hours, drugs and/or solvents were added (25 μl) to a final volume of 100 μl. Following 72 hr of treatment plates were removed from the incubator and allowed to equilibrate to room temperature for approx 10 min. 100 μl CellTiter-Glo reagent was added to each well that was then covered (Perkin Elmer Topseal) and shaken on plate shaker for 10 min. Luminescence was measured on a HTS Topcount (Perkin Elmer). Within an experiment, the results for each treatment were the mean of 2 replicate wells. For initial screening purposes, compounds were tested using a 9 point dilution curve (serial 1:3 dilutions). For each experiment, controls (containing no drug) and a blank incubation (containing cells read at the time of compound addition) were run in parallel. The blank value was subtracted from all control and sample values. For each sample, the mean value for cell growth (in relative light units) was expressed as a percentage of the mean value for cell growth of the control.

L-363 cells = test: Biological Assay C: antiproliferative activity on L-363 cells (CellTiter-Glo); type: cell-based; details: Homo sapiens, 72 hr of treatment, averaged values
Procedure: as §1, §2

[1] = test system: P-IKKα levels in L363 cells; test: Biological Assay B: effect of compounds on P-IKKα levels in L363 cells; type: cell-based; details: Homo sapiens, L-363; L363 cells with BAFF, 2 hr treatment; averaged values; read-out: IKKα Cellular IC50
Procedure: Effect of Compounds on P-IKKα Levels in L363 Cells
All compounds tested were dissolved in DMSO and further dilutions were made in culture medium. Final DMSO concentration was 1% (v/v) in cell assays. The human L363 cells (ATCC) were cultured in RPMI 1640 medium supplemented with GlutaMax and 10% fetal calf serum (PAA). Cells were routinely maintained at densities of 0.2×10^6 cells per ml-1×10^6 cells per ml at 37° C. in a humidified 5% CO2 atmosphere. Cells were passaged twice a week splitting back to obtain the low density. Cells were seeded in 96 well plates (Nunc 167008) at 2×10^6 per ml media in a volume of 75 μl per well plus 25 μl 1 μg/ml recombinant human B-cell activating factor (BAFF/BLyS/TNFSF13B). Seeded cells were incubated at 37° C. in a humidified 5% CO2 atmosphere for 24 hr. Drugs and/or solvents were added (20 μl) to a final volume of 120 μl. Following 2 hr treatment plates were removed from the incubator and cell lysis was achieved by the addition of 30 μl 5× lysis buffer followed by shaking on a plate shaker at 4° C. for 10 min. At the end of this incubation lysed cells were centrifuged at 800×g for 20 min at 4° C. and the lysate was assessed for P-IKKα levels by sandwich immuno-assay carried out in anti-rabbit antibody coated Mesoscale plates. Within an experiment, the results for each treatment were the mean of 2 replicate wells. For initial screening purposes, compounds were tested using an 8 point dilution curve (serial 1:3 dilutions). For each experiment, controls (containing MG132 and BAFF but no test drug) and a blank incubation (containing MG132 and BAFF and 10 μM ADS125117, a test concentration known to give full inhibition) were run in parallel. The blank incubation value was subtracted from all control and sample values. To determine the IC50 a sigmoidal curve was fitted to the plot of % inhibition of control P-IKKα levels versus Log10 compound concentration.

LP-1 cells = test: Biological Assay C: antiproliferative activity on LP-1 cells (CellTiter-Glo); type: cell-based; details: Homo sapiens, 72 hr of treatment, averaged values
Procedure: as §1, §2

[2] = molecular target: T1, Recombinant Human NF-kappaB-inducing Kinase (NIK/MAP3K14) (Homo sapiens (Human), UniProt Q99558); test: Biological Assay A2: inhibition of auto-phosphorylation of recombinant human NIK/MAP3K14 (AlphaScreen); type: biochemical; details: 25 microM ATP, 0.2 nM GST-tagged NIK/MAP3K14, 1 h at 25° C., averaged values, read-out: Alpha-Screen IC50
T1 sequence (Q99558 whole entry): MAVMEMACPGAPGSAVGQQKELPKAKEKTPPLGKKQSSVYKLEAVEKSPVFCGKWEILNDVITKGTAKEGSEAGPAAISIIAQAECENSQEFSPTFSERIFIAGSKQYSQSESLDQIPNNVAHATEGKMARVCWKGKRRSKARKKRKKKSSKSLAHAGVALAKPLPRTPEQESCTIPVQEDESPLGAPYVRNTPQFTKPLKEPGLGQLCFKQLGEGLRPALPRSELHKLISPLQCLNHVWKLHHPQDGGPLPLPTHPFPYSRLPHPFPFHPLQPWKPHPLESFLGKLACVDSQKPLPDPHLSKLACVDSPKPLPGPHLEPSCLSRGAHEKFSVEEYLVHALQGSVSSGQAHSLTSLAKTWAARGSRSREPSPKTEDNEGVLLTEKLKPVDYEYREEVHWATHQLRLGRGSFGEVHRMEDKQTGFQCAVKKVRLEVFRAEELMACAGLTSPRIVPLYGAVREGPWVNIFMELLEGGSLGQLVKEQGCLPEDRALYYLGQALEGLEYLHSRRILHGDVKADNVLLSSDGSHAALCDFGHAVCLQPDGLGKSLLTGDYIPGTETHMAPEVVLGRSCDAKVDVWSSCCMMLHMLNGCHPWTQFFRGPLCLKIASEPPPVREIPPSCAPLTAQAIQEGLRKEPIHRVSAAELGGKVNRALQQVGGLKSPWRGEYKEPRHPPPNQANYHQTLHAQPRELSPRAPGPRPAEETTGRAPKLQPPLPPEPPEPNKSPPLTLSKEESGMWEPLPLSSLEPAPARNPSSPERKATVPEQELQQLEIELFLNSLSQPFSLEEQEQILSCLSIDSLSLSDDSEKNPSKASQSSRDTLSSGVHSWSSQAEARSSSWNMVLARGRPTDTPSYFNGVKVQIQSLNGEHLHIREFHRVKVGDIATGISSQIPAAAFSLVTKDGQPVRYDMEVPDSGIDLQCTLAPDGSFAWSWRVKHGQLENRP
Procedure: Inhibition of Auto-phosphorylation of Recombinant Human NF-kappaB-inducing Kinase (NIK/MAP3K14) Activity (AlphaScreen®)
NIK/MAP3K14 auto-phosphorylation activity was measured using the AlphaScreen® (αscreen) format (Perkin Elmer). All compounds tested were dissolved in dimethyl sulfoxide (DMSO) and further dilutions were made in assay buffer. Final DMSO concentration was 1% (v/v) in assays. Assay buffer was 50 mM Tris pH 7.5 containing 1 mM EGTA (ethylene glycol tetraacetic acid), 1 mM DTT (dithiothreitol), 0.1 mM Na3VO4, 5 mM MgCl2, 0.01% Tween® 20. Assays were carried out in 384 well Alphaplates (Perkin Elmer). Incubations consisted of compound, 25 microM Adenosine-5′-triphosphate (ATP), and 0.2 nM NIK/MAP3K14. Incubations were initiated by addition of GST-tagged NIK/MAP3K14 enzyme, carried out for 1 h at 25° C. and terminated by addition of stop buffer containing anti-phospho-IKK Ser176/180 antibody. Protein A Acceptor and Glutathione-Donor beads were added before reading using an EnVision® Multilabel Plate Reader (Perkin Elmer). Signal obtained in the wells containing blank samples was subtracted from all other wells and IC50's were determined by fitting a sigmoidal curve to % inhibition of control versus Log10 compound concentration.

[3] = molecular target: T1, Recombinant Human NF-kappaB-inducing Kinase (NIK/MAP3K14); test: Biological Assay A: inhibition of recombinant human NIK/MAP3K14 activity (MSD, MBP substrate); details: 25 μM ATP, 10 nM NIK/MAP3K14, 1 h at 25° C.; averaged over all measurements on all batches; read-out: Biochemical (MSD MBP) IC50
Procedure: Inhibition of Recombinant Human NF-kappaB-inducing Kinase (NIK/MAP3K14) Activity
Assay buffer was 50 mM Tris pH 7.5 containing 1 mM EGTA (ethylene glycol tetraacetic acid), 1 mM DTT (dithiothreitol), 0.1 mM Na3VO4, 5 mM MgCl2, 0.01% Tween® 20. Assays were carried out in 384 well Mesoscale high binding plates which had been coated with myelin basic protein (MBP) and blocked with bovine serum albumin to prevent non-specific protein binding. All compounds tested were dissolved in dimethyl sulfoxide (DMSO) and further dilutions were made in assay buffer. Final DMSO concentration was 1% (v/v) in assays. Incubations consisted of compound (1% DMSO in control and blank wells), 25 μM Adenosine-5′-triphosphate (ATP), and 10 nM NIK/MAP3K14 substituting enzyme with buffer in the blank wells. Incubations were carried out for 1 h at 25° C. and were followed by washing and sequential incubation with rabbit anti-phospho-MBP and anti-rabbit Ig Sulfotag antibody before reading bound Sulfotag on a Mesoscale Discovery. Signal obtained in the wells containing blank samples was subtracted from all other wells and IC50's were determined by fitting a sigmoidal curve to % inhibition of control versus Log10 compound concentration.

Structure (SMILES) | EC50 (JJN-3 cells) [nM] | EC50 (L-363 cells) [nM] | IC50 [1] [nM] | EC50 (LP-1 cells) [nM] | IC50 [2] [nM] | IC50 [3] [nM]
CC(C)(O)C#Cc1cc2c(-c3cn[nH]c3)cn(CC3COC3)c2cn1 [Compound 17] | 5860 | 11900 | 418 | > 30000 | 69 | 88
CCCC(C)n1cc(-c2cn[nH]c2)c2cc(C#CC(C)(C)O)ncc21 (stereo not shown) [Compound 23] | 848 | 625 | 302 | 1080 | 43 | 57
[2H]c1n[nH]c([2H])c1-c1cn(CC)c2cnc(C#CC(C)(C)O)cc12 [Compound 40] | 547 | 260 |  | 1950 | 38 | 
CCn1cc(-c2c[nH]nc2Cl)c2cc(C#CC(C)(C)O)ncc21 [Compound 38] | 1660 | 1320 |  | 3200 | 13 | 
OC1(C#Cc2cc3c(-c4cn[nH]c4)c[nH]c3cn2)CCCC1 [Compound 6] | 6880 | 10700 | 1120 | > 30000 | 26 | 19
CN1CCC(n2cc(-c3cn[nH]c3)c3cc(C#CC(C)(C)O)ncc32)CC1 [Compound 19] | 704 | 570 | 602 | 11600 | 98 | 65
CC(C)(O)C#Cc1cc2c(-c3cn[nH]c3)cn(C3CCC(CO)CC3)c2cn1 (stereo not shown) [Compound 29] | 4170 | 2430 | 632 | 27200 | 4 | 
CC(C)(O)C#Cc1cc2c(-c3cn[nH]c3)cn(CC3CCOC3)c2cn1 (stereo not shown) [Compound 2] | 3950 | 4340 | 829 | 21300 | 83 | 129
CCC(CC)n1cc(-c2cn[nH]c2)c2cc(C#CC(C)(C)O)ncc21 [Compound 24] | 744 | 519 | 191 | 647 | 65 | 48
CCn1cc(-c2cn[nH]c2)c2cc(C#CC(C)(C)O)ncc21 [Compound 9] | 526 | 553 | 89 | 3060 |  | 9
CCn1cc(-c2cn[nH]c2)c2cc(C#CC(C)(O)C3CC3)ncc21 (single isomer, unassigned) [Compound 49] | 1300 | 861 |  | 1700 | 14 | 
CCn1cc(-c2c[nH]nc2NC)c2cc(C#CC(C)(C)O)ncc21 [Compound 37] | 5660 | 4910 |  | > 30000 | 274 | 
CCn1c(C#N)c(-c2cn[nH]c2)c2cc(C#CC(C)(C)O)ncc21 [Compound 39] | 4610 | 3920 |  | 8000 | 47 | 
[2H]c1n[nH]c([2H])c1-c1cn(C2CCN(C)CC2)c2c(C)nc(C#CC(O)(C([2H])([2H])[2H])C([2H])([2H])[2H])cc12 [Compound 44] | 391 | 269 |  | 1540 | 84 | 
CC(C)(O)C#Cc1cc2c(-c3cn[nH]c3)cn(CC(F)(F)F)c2cn1 [Compound 28] | 1530 | 1020 | 338 | 7380 | 43 | 
CC(C)CS(=O)(=O)n1cc(-c2cn[nH]c2)c2cc(C#CC(C)(C)O)ncc21 [Compound 26] | 3870 | 3330 |  | 5020 | 141 | 
[2H]c1n[nH]c([2H])c1-c1cn(C2CCN(C3CC3)CC2)c2cnc(C#CC(O)(C([2H])([2H])[2H])C([2H])([2H])[2H])cc12 [Compound 43] | 354 | 127 |  | 976 | 44 | 
CCn1cc(-c2cn[nH]c2)c2cc(C#CC(C)(O)c3cc(C)on3)ncc21 (stereo not shown) [Compound 48] | 621 | 350 |  | 6090 | 14 | 
CC(C)(O)C#Cc1cc2c(-c3cn[nH]c3)cn(S(=O)(=O)Cc3ccccc3)c2cn1 [Compound 27] |  |  |  |  | 290 | 
CCn1cc(-c2cn[nH]c2)c2cc(C#CC(C)O)ncc21 (stereo not shown) [Compound 46] | 530 | 343 |  | 709 | 13 | 
CC(C)(O)C#Cc1cc2c(-c3cn[nH]c3)cn(C3CCN(CCF)CC3)c2cn1 [Compound 36] | 1620 | 565 |  | 9590 | 63 | 
[2H]c1n[nH]c([2H])c1-c1cn([C@H]2CCN(CCC(F)(F)F)C2)c2cnc(C#CC(O)(C([2H])([2H])[2H])C([2H])([2H])[2H])cc12 [Compound 42] | 2220 | 1030 |  | 2670 | 63 | 
[2H]C([2H])([2H])C(O)(C#Cc1cc2c(-c3c[nH]nc3Cl)cn(C3CCN(C)CC3)c2c(C)n1)C([2H])([2H])[2H] [Compound 45] | 415 | 277 |  | 1450 | 111 | 
CN1CCC(n2cc(-c3c[nH]nc3Cl)c3cc(C#CC(C)(C)O)ncc32)CC1 [Compound 41] | 1310 | 478 |  | 6110 | 79 | 
CC(C)(O)C#Cc1cc2c(-c3cn[nH]c3)cn(C3CCN(CC(F)(F)F)CC3)c2cn1 [Compound 35] | 820 | 439 |  | 2670 | 23 | 
